Data reported in publication PMC7513592 (RSC Medicinal Chemistry, 2020).
Entries after “also recorded” stand apart in the source; their conditions may differ.

Key:
hTRPV1 = target: T1, hTRPV1 (Homo sapiens, UniProt Q8NER1); experiment: TRPV1 FLIPR assay: capsaicin-activated Ca2+ influx in HEK-hTRPV1 cells; type: cell-based
T1 construct: expressed in transfected cells; host or cells: HEK293T / HEK293, transient
Method: hTRPV1 activity was measured using HEK293T cells transiently overexpressing TRPV1 as previously reported.6 Briefly, HEK293 cell were trypsinized and plated at 1.5 x10^4 cells/well onto Corning® 96-well black polystyrene clear bottom microplates (CLS3603 Sigma-Aldrich) coated with 100 μg/mL poly-D-lysine (P6407 Sigma-Aldrich) using 100 μL phenol-red free DMEM with 10% FBS and 2mM glutamine without antibiotics. Cells were incubated at 37 °C for 24 h. On the following day, transfection was performed using 200 ng of pcDNA 3.1 hTRPV1 and 0.6 μL Lipofectamine 2000 reagent/well. 24 h after the transfection, the medium was replaced with 90 µL of loading buffer (modified Krebs buffer containing 117 mM NaCl, 4.8 mM KCl, 1 mM MgCl2, 5 mM D-glucose, 10 mM HEPES, 1.8 mM CaCl2 and calcium-5 fluorescence dye (50 µL/mL loading buffer)). Cells were incubated in the loading buffer at 37 °C for 1 h in dark. Fluorescence Ca2+ measurements were carried out using FLIPR TETRA high-throughput, fluorescence microplate reader as described before. Stable baselines were established for 50 s before 10 µL of a 10X solution of compound 39 or the TRPV1-inhibitor capsazepine (CPZ) prepared in 1.8 mM CaCl2-containing Krebs buffer was robotically administered to the cells. Cells were incubated and fluorescence was monitored in the presence of compound for an additional 5 min before administration of the agonist in 1.8 mM CaCl2-containing Krebs buffer (final concentration of capsaicin in the assay plate was 100 nM). The activity of TRPV1 was measured by quantifying the area under the curve (AUC) of the fluorescence intensity, following administration of the agonist.
The current HEK-hTRPV1 method employs a constant concentration of Ca2+ (1.8 mM) in the assay buffer during the whole experiment. […]
of capsaicin (100 nM) the channel was activated and a high influx of Ca2+ was immediately recorded. The activation of the TRPV1 channel is supposed to occur through displacement of lipids in the transmembrane domain. […]
Fig S2. […] Quantification […]

L-type calcium channels = experiment: In vitro polypharmacology (Eurofins Cerep): L-type calcium channels; conditions: 10 µM
Method: (§1) Fig. 8 In vitro polypharmacology for selected targets of 1 (blue diamonds) and 39 (red diamonds). Data are shown for each replicate (n = 2). The data for 1 were extracted from [ref. 17]. The experiments were conducted by Eurofins Cerep SA, France.

hERG = target: T2, hERG (Homo sapiens, UniProt Q12809); experiment: In vitro polypharmacology (Eurofins Cerep): hERG
T2 construct: Eurofins Cerep SA, France (contract testing)
Method: as §1
We also characterized the off-targets predicted to be potentially problematic for both compounds using the web-based target prediction tool PPB2.[41]

T1 sequence (Q8NER1 whole entry): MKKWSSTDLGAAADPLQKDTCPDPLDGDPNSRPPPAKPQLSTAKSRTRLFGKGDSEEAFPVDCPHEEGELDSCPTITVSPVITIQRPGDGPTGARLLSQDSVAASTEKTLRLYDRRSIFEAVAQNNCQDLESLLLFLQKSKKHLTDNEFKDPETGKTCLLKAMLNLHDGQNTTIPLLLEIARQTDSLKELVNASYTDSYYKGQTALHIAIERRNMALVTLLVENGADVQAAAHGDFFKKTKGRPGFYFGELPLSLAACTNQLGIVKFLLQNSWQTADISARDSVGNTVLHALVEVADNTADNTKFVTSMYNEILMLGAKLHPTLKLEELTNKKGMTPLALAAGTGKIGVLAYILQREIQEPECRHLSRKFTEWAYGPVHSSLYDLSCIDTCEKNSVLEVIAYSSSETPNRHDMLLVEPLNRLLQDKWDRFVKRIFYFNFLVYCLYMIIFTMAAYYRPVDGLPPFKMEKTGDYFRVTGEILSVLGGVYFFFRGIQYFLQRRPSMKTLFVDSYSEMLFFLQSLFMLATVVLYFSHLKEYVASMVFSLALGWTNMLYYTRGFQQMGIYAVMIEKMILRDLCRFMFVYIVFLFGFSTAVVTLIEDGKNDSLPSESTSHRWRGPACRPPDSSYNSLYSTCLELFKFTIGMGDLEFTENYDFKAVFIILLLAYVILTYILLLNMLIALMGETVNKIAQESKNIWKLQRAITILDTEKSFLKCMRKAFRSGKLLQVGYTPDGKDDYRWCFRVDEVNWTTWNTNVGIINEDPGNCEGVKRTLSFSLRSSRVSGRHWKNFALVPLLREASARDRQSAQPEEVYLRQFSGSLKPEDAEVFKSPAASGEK
T2 sequence (Q12809 whole entry): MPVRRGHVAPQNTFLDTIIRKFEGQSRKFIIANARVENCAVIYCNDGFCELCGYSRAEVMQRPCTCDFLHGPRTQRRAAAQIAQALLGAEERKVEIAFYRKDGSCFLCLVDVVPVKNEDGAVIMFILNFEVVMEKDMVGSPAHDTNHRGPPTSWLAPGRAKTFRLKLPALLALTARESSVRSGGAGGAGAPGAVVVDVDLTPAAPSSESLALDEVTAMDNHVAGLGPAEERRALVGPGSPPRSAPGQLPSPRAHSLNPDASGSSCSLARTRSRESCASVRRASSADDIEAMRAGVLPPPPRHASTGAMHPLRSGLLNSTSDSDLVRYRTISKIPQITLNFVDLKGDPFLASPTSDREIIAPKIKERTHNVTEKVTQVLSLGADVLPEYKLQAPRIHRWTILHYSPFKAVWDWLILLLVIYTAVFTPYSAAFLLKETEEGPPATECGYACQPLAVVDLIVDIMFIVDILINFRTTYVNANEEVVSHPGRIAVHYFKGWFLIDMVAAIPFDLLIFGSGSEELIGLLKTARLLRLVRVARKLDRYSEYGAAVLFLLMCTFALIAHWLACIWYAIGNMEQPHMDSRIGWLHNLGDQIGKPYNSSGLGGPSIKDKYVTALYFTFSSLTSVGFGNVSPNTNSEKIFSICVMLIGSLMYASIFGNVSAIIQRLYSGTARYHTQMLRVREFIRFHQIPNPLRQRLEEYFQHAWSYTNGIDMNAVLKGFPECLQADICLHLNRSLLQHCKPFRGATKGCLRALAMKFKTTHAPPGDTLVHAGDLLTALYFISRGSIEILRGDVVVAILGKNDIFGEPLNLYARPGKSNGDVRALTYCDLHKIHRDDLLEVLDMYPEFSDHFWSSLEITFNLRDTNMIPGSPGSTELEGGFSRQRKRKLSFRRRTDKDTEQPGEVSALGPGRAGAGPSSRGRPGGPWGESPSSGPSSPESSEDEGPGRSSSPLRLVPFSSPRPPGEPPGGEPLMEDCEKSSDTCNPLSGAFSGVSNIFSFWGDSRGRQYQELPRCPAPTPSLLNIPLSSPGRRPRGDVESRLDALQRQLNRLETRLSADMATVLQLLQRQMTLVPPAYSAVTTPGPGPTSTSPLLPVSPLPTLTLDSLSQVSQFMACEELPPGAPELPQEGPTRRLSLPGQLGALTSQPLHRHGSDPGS

## O=c1ccc(CN2CCN([C@H]3CC[C@@](O)(c4cccc(C(F)(F)F)c4)CC3)CC2)c[nH]1 [compound 39]
hTRPV1; 100 nM capsaicin, read-out: inhibition of Ca2+ influx through capsaicin-activated hTRPV1
  inhibition at 10 µM: 2%
hTRPV1; 10 µM
  activation or inhibition of TRPV1: lack of activity on TRPV1; also recorded: did not activate nor inhibit
L-type calcium channels
  activity on L-type calcium channels: low activity
hERG
  hERG activity: completely abolished; also recorded: suppressed hERG inhibition
